In patent publication US20050182242A1, “Global analysis of protein activities using proteome chips” (priority 2001, published 2005):

Legend:
[1] = system: PI(3,4)P2 liposomes; test: Yeast proteome chip probed with PI(3,4)P2 liposomes; conditions: liposome binding signal on yeast proteome chip, Cy3-streptavidin detection
Excerpt: (§1) To identify PI-binding proteins in yeast, liposomes were used as probes because the liposome provides the most relevant physiological condition to assay the interactors. Six types of liposomes were used. Each contains phosphatidylcholine (“PC”) with 1% (w/w) N-(biotinoyl)-1,2-dihexadecanoyl-sn-glycero-3-phosphoethanolamine, triethylammonium salt (biotin DHPE). The biotinylated lipid serves as a label that can be detected by Cy3-streptavidin (21). In addition to PC, the five other liposomes contain either 5% (w/w) PI(3)P, PI(4)P, PI(3,4)P2, PI(4,5)P2, or PI(3,4,5)P3 (FIG. 3A).
(§2) The protein-liposome interaction was assayed as follows. Appropriate amounts of each lipid in chloroform were mixed and dried under nitrogen. The lipid mixture was resuspended in TBS buffer by vortexing. The liposomes were created by sonication. Blocked proteome chips were washed three to five times in PBS buffer, and the extra liquid on the glass surface was removed by tapping the slides vertically on a KIMWIPE™. 200 μl of liposome solution was added to the proteome chip and immediately covered by a hydrophobic plastic cover slip (GRACE BIO-LAB™, USA). After trapped air bubbles were removed, the chip was incubated in a humidity chamber at RT for one hour. To remove the cover slip, the chip was immersed into large volume of PBS buffer (50 ml), so that the slip would float away. The chip was then moved to a second PBS bath (>50 ml) and washed 3×5 min with shaking at RT. After removing extra liquid on the surface of the chip, about 100 μl of Cy3 or Cy5 conjugated streptavidin (PIERCE™, USA; 1:2000 to 1:4000 dilution) was added to the surface and covered by a hydrophobic plastic cover slip (GRACE BIO-LABS™, USA). The chip was incubated for greater than 30 min in the dark at RT. The chip was then washed as described above. To completely remove the liquid on the chip, the chip was spun to dryness at 1500-2000 rpm for 5-10 min at RT.
(§3) • 1. S. Fields, Y. Kohara, D. J. Lockhart, Proc. Natl. Acad. Sci. 96, 8825 (1999); A. Goffeau et al., Science 274, 563 (1996). • 2 P. Ross-Macdonald et al., Nature 402, 413 (1999); J. L., DeRisi, V. R. Iyer, P. O. Brown, Science 278, 680 (1997); E. A. Winzeler et al., Science 285, 901 (1999). P. Uetz et al., Nature 403, 623 (2000); T. Ito et al., Proc. Natl. Acad. Sci. USA. 97, 1143 (2000) • 3 H. Zhu, M. Snyder, Curr. Opin. Chem. Biol. 5, 40 (2001). • 4 M. R. Martzen et al., Science 286, 1153 (1999). • 5 H. Zhu et al., Nat. Genet. 26, 283 (2000). • 6 G. MacBeath, S. L. Schreiber, Science 289, 1760 (2000). • 7 A. Caveman, J. Cell Sci. 113, 3543 (2000). • 8 P. Arenkov et al., Anal. Biochem 278, 123 (2000). • 9 D. A. Mitchell, T. K. Marshall, R. J. Deschenes, Yeast 9, 715 (1993). The expression vector pEGH was created by inserting an RGS-HisX6 epitope tag between the GST gene and the polycloning site of pEG(KG). The yeast ORFs were cloned using the strategy described previously (5), except every step was done in a 96-well format. Plasmid DNAs confirmed by DNA sequencing were reintroduced into both yeast (Y258) and E. coli (DH5a). […] 0.1 mM calcium was present in buffers in all subsequent steps. The chip was washed three times with PBS at RT. Cy3-conjugated streptavidin (Jackson IR, USA) (1:5000 dilution) was added to the chip and incubated for 30 min at RT. After extensive washing, the chip was spun dry and scanned using a microarray scanner; the data was subsequently acquired with the GENEPIX™ array densitometry software (Axon, USA). • 12 S. S. Hook, A. R. Means, Annu. Rev. Pharmacol. Toxicol.41, 471 (2001). • 13 M. S. Cyert, R. Kunisawa, D. Kaim, J. Thorner, Proc. Natl. Acad. Sci. USA 88, 7376 (1991). • 14 D. A. Stirling, K. A. Welch, M. J. Stark, EMBO J. 13, 4329 (1994). • 15 F. Bohl, Kruse, EMBO J. 19, 5514 (2000); E. Bertrand et al., Mol. Cell 2, 437 (1998). • 16 D. C. Winter, E. Y. Choe, R. Li, Proc. Nat. Acad Sci. USA 96, 7288 (1999). • 17 C.

[2] = system: phosphatidylcholine (PC) liposomes; test: Yeast proteome chip probed with PC liposomes; conditions: liposome binding signal on yeast proteome chip, Cy3-streptavidin detection
Excerpt: as §1, §2
as §3, with “Pharmacol. Toxicol.41, 471 (2001). • 13 M. S. Cyert, R. Kunisawa, D. Kaim, J. Thorner, Proc. Natl. Acad. Sci. USA 88, 7376 (1991). • 14 D. A. Stirling, K. A. Welch, M. J. Stark, EMBO J. 13, 4329 (1994). • 15 F. Bohl, Kruse, EMBO J. 19, 5514 (2000); E. Bertrand et al., Mol. Cell 2, 437 (1998). • 16 D. C. Winter, E. Y. Choe, R. Li, Proc. Nat. Acad Sci. USA 96, 7288 (1999). • 17 C.” left out

[3] = system: phospholipids (phosphatidylinositols vs phosphatidylcholine); test: Proteome chip lipid-binding screen, overall analysis of six liposomes (PI/PC specificity); conditions: phospholipid liposome probes
Excerpt: FIGS. 4A-4D. Analysis of the phosphatidylinositol-binding proteins. To determine the phosphatidylinositol (“PI”)-binding specificity of 150 positive proteins, their binding signals were normalized against the corresponding binding signals of phosphatidylcholine (“PC”). Based on the ratios (“PI/PC”), the proteins were grouped into four categories: (A) 30 strong and specific, (B) 43 strong and nonspecific, (C) 19 weak and specific, and (D) 58 weak and nonspecific phosphatidylinositol-binding proteins. The intensity represents the PI/PC signal ratio as shown by the scale in the figure. The column, labeled “10^n” to the right of the PI/PC binding ratios indicates the maximum binding signal intensity (open boxes) and its confidence interval (solid horizontal lines); the numbers indicate the log of the values. Boxes in the three columns to the right of the confidence interval column indicate membrane-associated proteins (“Membrane”), kinases (“Kinase”), and uncharacterized ORFs (“Unknown”), respectively.
To identify PI-binding proteins in yeast, liposomes were used as probes because the liposome provides the most relevant physiological condition to assay the interactors. Six types of liposomes were used. […] The biotinylated lipid serves as a label that can be detected by Cy3-streptavidin (21). […]

## RIM15: yeast protein kinase, regulator of glucose metabolism, GST-HisX6 fusion
[1]
  PI(3, 4)P2: 4941.00
[2]
  PC: 244.76
[3]
  identified as lipid-binding interactor: identified
